Assay results taken from PubChem BioAssay (NCI).
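These data come from cells grown in 96-well plates and exposed to compound for 48 hours at five concentrations. The concentration for full growth arrest is given as TGI.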 Where a SMILES comes first, the peptide text is derived from it. [ ]: non-standard residue; d: D form. The star is where a group is joined. ξ: configuration not given here. NMeF = CN[C@@H](Cc1ccccc1)C(=O)O; ξNMeV = CNC(C(=O)O)C(C)C; Boc = CC(C)(C)OC(=O)*; OBn = c1ccc(CO*)cc1

How the values were obtained:
Experiment in all cases: NCI tumour cell line growth inhibition, 48 h
786-0 renal = test system: 786-0 renal
CCRF-CEM leukemia = test system: CCRF-CEM leukemia
HCT-15 colon = test system: HCT-15 colon
IGROV1 ovarian = test system: IGROV1 ovarian
LOX IMVI melanoma = test system: LOX IMVI melanoma
M14 melanoma = test system: M14 melanoma
OVCAR-3 ovarian = test system: OVCAR-3 ovarian
OVCAR-4 ovarian = test system: OVCAR-4 ovarian
RPMI-8226 leukemia = test system: RPMI-8226 leukemia
SK-MEL-2 melanoma = test system: SK-MEL-2 melanoma
SR leukemia = test system: SR leukemia
SW-620 colon = test system: SW-620 colon
UO-31 renal = test system: UO-31 renal
A498 renal = test system: A498 renal
NCI/ADR-RES ovarian = test system: NCI/ADR-RES ovarian
T-47D breast = test system: T-47D breast

| SMILES | TGI (786-0 renal) [µM] | TGI (CCRF-CEM leukemia) [µM] | TGI (HCT-15 colon) [µM] | TGI (IGROV1 ovarian) [µM] | TGI (LOX IMVI melanoma) [µM] | TGI (M14 melanoma) [µM] | TGI (OVCAR-3 ovarian) [µM] | TGI (OVCAR-4 ovarian) [µM] | TGI (RPMI-8226 leukemia) [µM] | TGI (SK-MEL-2 melanoma) [µM] | TGI (SR leukemia) [µM] | TGI (SW-620 colon) [µM] | TGI (UO-31 renal) [µM] | TGI (A498 renal) [µM] | TGI (NCI/ADR-RES ovarian) [µM] | TGI (T-47D breast) [µM] |
| --- | --- | --- | --- | --- | --- | --- | --- | --- | --- | --- | --- | --- | --- | --- | --- | --- |
| COc1ccc(C2ON(c3ccccn3)CC=C2C)cc1 (stereo not drawn) | > 100 | > 100 | > 100 | > 100 | > 100 | > 100 | > 100 | > 100 | > 100 | > 100 | > 100 | > 100 | > 100 | – | – | – |
| O=C1NC(=O)C(C(c2ccc(Cl)cc2)C2C(=O)NC(=O)NC2=O)C(=O)N1 | > 100 | > 100 | > 100 | > 100 | > 100 | > 100 | > 100 | > 100 | > 100 | > 100 | – | > 100 | > 100 | > 100 | > 100 | > 100 |
| CSc1nc2c(N)ncnc2n1C | > 100 | > 100 | > 100 | > 100 | > 100 | > 100 | > 100 | > 100 | > 100 | > 100 | – | > 100 | > 100 | > 100 | > 100 | > 100 |
| CC12CC[C@H](O)C(C)(C)[C@H]1CC[C@](C)(O)C2COc1ccc2ccc(=O)oc2c1 (stereo partly drawn) | > 100 | > 100 | > 100 | > 100 | > 100 | > 100 | > 100 | > 100 | > 100 | > 100 | > 100 | > 100 | > 100 | > 100 | – | – |
| COC(=O)N/N=C/c1oc(-c2ccccc2)c(-c2ccccc2)c1[N+](=O)[O-] | > 100 | – | > 100 | > 100 | > 100 | > 100 | > 100 | > 100 | > 100 | – | > 100 | > 100 | > 100 | – | – | – |
| OCC1OC(n2nc(-c3ccccc3)nc2-c2cnccn2)C(O)C1O (stereo not drawn) | > 100 | > 100 | > 100 | > 100 | > 100 | > 100 | > 100 | > 100 | – | – | – | > 100 | > 100 | – | > 100 | > 100 |
| COc1ccc(N[C@H](CS(=O)c2ccc(C)cc2)C(F)(F)C(F)(F)F)cc1 (stereo partly drawn) | > 100 | > 100 | > 100 | > 100 | > 100 | > 100 | > 100 | > 100 | > 100 | – | – | > 100 | > 100 | > 100 | > 100 | > 100 |
| O=[N+]([O-])c1cccc2nc3ccccc3c(NCCCN3CCOCC3)c12 | 0.0404 | 0.13 | 0.0491 | 0.084 | 1.66 | 0.0233 | 0.0484 | 0.0494 | 0.187 | 0.0362 | – | 0.686 | 0.0564 | 0.0377 | 0.341 | 0.241 |
| CC(=O)OC1CC2(c3ccccc3)C(=O)c3ccccc3N2O1 (stereo not drawn) | > 100 | > 100 | > 100 | > 100 | – | > 100 | – | > 100 | > 100 | – | > 100 | > 100 | > 100 | > 100 | – | – |
| O=C1c2nn(-c3ccccc3)nc2C(c2ccccc2)N1c1ccccc1 (stereo not drawn) | > 100 | > 100 | > 100 | > 100 | > 100 | > 100 | > 100 | > 100 | > 100 | > 100 | > 100 | > 100 | > 100 | – | – | – |
| CN(C)CCNC(=O)c1cccc2nc3cccc(F)c3nc12 | 24.8 | 10.4 | 5.77 | 9.67 | 2.24 | 4.58 | 8.97 | 4.83 | 5.65 | 4.86 | – | 5.82 | 4.83 | 5.14 | 3.83 | > 28.4 |
| CC(C)C(C(=O)N1CCC[C@@H]1C(=O)OCc1ccccc1)N(C)C(=O)C(C(C)C)N(C)C(=O)[C@H](Cc1ccccc1)N(C)C(=O)[C@H](NC(=O)OC(C)(C)C)C(C)C (stereo partly drawn) (Boc-[dV][NMeF][ξNMeV][ξNMeV][dP]-OBn) | > 100 | > 100 | > 100 | > 100 | > 100 | > 100 | > 100 | > 100 | > 100 | > 100 | > 100 | > 100 | > 100 | > 100 | – | – |
| Cc1ccc2[nH]c3[nH]c(=O)[nH]c(=O)c3c2c1 | > 100 | > 100 | > 100 | > 100 | > 100 | > 100 | > 100 | – | > 100 | > 100 | – | > 100 | > 100 | > 100 | > 100 | > 100 |
| CC(=O)OCC12C(OC(C)=O)C[C@@H](C)C3(CC(c4ccoc4)OC3=O)C1CCC(O)C21CO1 (stereo partly drawn) | > 100 | – | > 100 | > 100 | > 100 | > 100 | > 100 | > 100 | > 100 | > 100 | > 100 | – | > 100 | > 100 | > 100 | – |
| Cc1ccc2c(=O)c(-c3nnc(N)s3)c[nH]c2n1 | > 100 | > 100 | > 100 | > 100 | > 100 | > 100 | > 100 | > 100 | > 100 | > 100 | – | > 100 | > 100 | > 100 | > 100 | > 100 |
| Nc1nc(NNc2ccc(Cl)c(Cl)c2)cc(=O)[nH]1 | 67.5 | > 100 | 58.7 | > 100 | 33.1 | > 100 | 59.5 | > 100 | > 100 | – | > 100 | 61.1 | > 100 | > 100 | > 100 | – |
